The subject of experiment [1] is extracted mouse vas deferens preparation. As to the kind of experiment: Opioid activity test using an extracted mouse vas deferens preparation (suppression of electrically induced contractions). Set-up: species or system male ddy mouse. To be noted: electrical stimulus 0.1 Hz, 37° C. As to the method:
(§1) A male ddy mouse was used in this test. The vas deferens extracted from the animal was suspended in a Magnus tube filled with Krebes-Henseleit solution (NaCl 118 mM; KCl 4.7 mM; CaCl2 2.5 mM; KH2 PO4 1.1 mM; NaHCO3 25 mM; Glucose 11 mM) warmed to 37° C. and ventilated with 5% carbon dioxide and 95% oxygen. Electrical stimulus was performed at 0.1 Hz for 5.0 ms by means of ring-shaped platinum electrodes located above and below. Tissue contractions were recorded on a polygraph using an isometric transducer.
(§2) After adequately washing with nutrient solution and the contraction reaction stabilized, the μ agonist, naloxone, the δ agonist, NTI, or the κ agonist, norBNI, was added after which the test compound was again cumulatively added after roughly 20 minutes. The Ke value was calculated using the following calculation formula from the difference in the efficacies of both agonists.

Another experiment deals with T1, μ receptor (Mus musculus, UniProt P42866).
T1 construct: naloxone as mu antagonist (printed 'agonist')
T1 sequence (P42866 whole entry): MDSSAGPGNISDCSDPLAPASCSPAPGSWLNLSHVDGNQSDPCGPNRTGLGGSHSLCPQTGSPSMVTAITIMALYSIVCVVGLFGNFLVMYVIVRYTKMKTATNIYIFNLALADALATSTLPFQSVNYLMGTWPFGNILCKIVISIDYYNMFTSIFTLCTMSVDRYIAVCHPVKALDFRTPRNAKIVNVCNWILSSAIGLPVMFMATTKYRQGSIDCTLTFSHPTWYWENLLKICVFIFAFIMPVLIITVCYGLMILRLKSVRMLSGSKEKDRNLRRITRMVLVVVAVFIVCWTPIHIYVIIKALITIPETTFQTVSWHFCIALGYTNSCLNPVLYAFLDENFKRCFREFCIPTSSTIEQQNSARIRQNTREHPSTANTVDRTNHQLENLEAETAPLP
As to the kind of experiment: Opioid activity test using an extracted mouse vas deferens preparation, Ke with naloxone. The arrangement: species or system male ddy mouse. To be noted: naloxone added. As to the method: as §1, §2
(§3) Ke=[Conc. of added agonist]/(IC50 ratio-1)
(§4) IC50 ratio=IC50 in the presence of agonist/IC50 in the absence of agonist

Another experiment addresses T2, δ receptor (Mus musculus, UniProt P32300).
T2 construct: The vas deferens extracted from the animal was suspended in a Magnus tube; from tissue; host or cells: mouse (male ddy) vas deferens
Set-up: species or system male ddy mouse. The conditions noted are these: mouse vas deferens, δ, NTI added.

In the next experiment the target is T3, κ receptor (Mus musculus, UniProt P33534).
T3 construct: from tissue; host or cells: mouse (male ddy) vas deferens
T3 sequence (P33534 whole entry): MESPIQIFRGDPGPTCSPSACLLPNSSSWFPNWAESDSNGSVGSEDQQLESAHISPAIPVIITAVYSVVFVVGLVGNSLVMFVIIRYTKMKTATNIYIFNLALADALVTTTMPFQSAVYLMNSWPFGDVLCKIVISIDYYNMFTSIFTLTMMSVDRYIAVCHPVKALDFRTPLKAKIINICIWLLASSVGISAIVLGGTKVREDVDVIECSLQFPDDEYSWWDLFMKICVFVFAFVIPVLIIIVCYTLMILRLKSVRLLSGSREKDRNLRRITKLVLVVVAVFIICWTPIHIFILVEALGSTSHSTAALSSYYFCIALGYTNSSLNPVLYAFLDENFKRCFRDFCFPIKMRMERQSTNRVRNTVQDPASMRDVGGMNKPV
As to the kind of experiment: Opioid activity test using an extracted mouse vas deferens preparation, Ke with norBNI. The conditions noted are these: for receptor selectivity of agonist (κ): in words; for Ke, norBNI: κ, norBNI added. The arrangement: species or system male ddy mouse. As to the method: as §1, §2, §3, §4

The test system of experiment [2] is acetic acid-induced writhing in ddy mice. As to the kind of experiment: animal or person. Type of experiment: in vivo, 5 week old ddy mice. To be noted: for ED50: s.c. 15 minutes before acetic acid; for analgesic activity: s.c., in words. Here is the method:
5 week old ddy mice were used in this test. After intraperitoneal administration of 0.1 ml of 0.6% aqueous acetic acid per 10 g of body weight, the number of writhing reactions that occurred in 10 minutes starting 10 minutes after administration was evaluated for the indicator. The test drug was administered subcutaneously into the backs of the animals 15 minutes before administration of acetic acid.

Experiment [3] is described as follows: Diuretic action (urine output for 5 hours after physiological saline loading in rats). Type of experiment: in vivo, male Wistar rats. The conditions noted are these: for ED (200% urine output) / ED (500% urine output): Rattus norvegicus, sc, 5 hours after saline 20 ml/kg p.o.; for ED (200% urine output): dose giving urine output of 200 (non-dosed group = 100); for ED (500% urine output): dose giving urine output of 500 (non-dosed group = 100); for Diuretic action (in words): s.c., from ED200 values. In short, it runs like this:
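Male Wistar rats (7-8 weeks), water withheld 1 h, bladder emptied, drug given subcutaneously; 30 min later 20 ml/kg saline orally. Urine collected 5 h after saline loading in metabolic cages; ED200 and ED500 are doses giving urine output of 200 and 500 relative to non-dosed group at 100.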

[4] abbreviates: Mus musculus, sc, read-out: ED50.

Counter-ions that a name gives are not always drawn. Like-named read-outs stand apart in the source and are kept apart here.

What is called IC50 is the concentration needed to halve the response being measured. A lower IC50 goes with higher potency. By ED50 is commonly meant the dose at which the effect has come halfway, by size or by number of responders.

T2 sequence (P32300 whole entry): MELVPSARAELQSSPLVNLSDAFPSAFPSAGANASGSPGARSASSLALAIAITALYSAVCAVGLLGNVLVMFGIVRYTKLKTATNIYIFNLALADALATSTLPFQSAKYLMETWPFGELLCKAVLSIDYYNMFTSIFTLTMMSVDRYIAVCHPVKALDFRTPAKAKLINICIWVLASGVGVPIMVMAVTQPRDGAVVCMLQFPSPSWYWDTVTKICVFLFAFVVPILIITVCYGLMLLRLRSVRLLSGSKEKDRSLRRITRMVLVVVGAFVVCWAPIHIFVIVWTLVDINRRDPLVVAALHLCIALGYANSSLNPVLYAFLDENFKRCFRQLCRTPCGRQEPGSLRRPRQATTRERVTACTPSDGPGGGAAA

Regarding `CN(C(=O)OCc1ccccc1)[C@H]1CC[C@@]2(O)[C@H]3Cc4ccc(O)c5c4[C@@]2(CCN3CC2CC2)[C@H]1O5` [Compound 42, 17-cyclopropylmethyl-3,14β-dihydroxy-4,5α-epoxy-6α-(N-methylbenzyloxycarbamido)morphinan.cndot.tartrate], the IC50 in experiment [1] is 251 pM. The “Ke, Naloxone” value on μ receptor was found to be 186 nM. Also, at δ receptor, the “Ke, NTI” value worked out at 63.5 nM. At κ receptor, the “receptor selectivity of agonist (κ)” value is reported as “selective agonists for κ receptors” and the “Ke, norBNI” value is reported as 0.905 nM. The ED50 in experiment [2] (setting [4]) was found to be 1.36 µg/kg. In experiment [2], the analgesic activity result is “particularly strong analgesic activity”. Also, in experiment [3], the ED (200% urine output) worked out at 0.85 µg/kg, the ED (500% urine output) worked out at 6.1 µg/kg and the “Diuretic action (in words)” value is listed as “extremely strong diuretic action”.
In experiment [1], `CN(C(=O)OCc1ccc([N+](=O)[O-])cc1)[C@H]1CC[C@@]2(O)[C@H]3Cc4ccc(O)c5c4[C@@]2(CCN3CC2CC2)[C@H]1O5` [Compound 43, 17-cyclopropylmethyl-3,14β-dihydroxy-4,5α-epoxy-6α-(N-methyl-4-nitrobenzyloxycarbamido)morphinan.cndot.hydrochloride] gave an IC50 of 650 pM. Besides, the “Ke, Naloxone” value at μ receptor amounted to 409 nM. Moreover, the “Ke, NTI” value on δ receptor was determined as 22.5 nM. Also, on κ receptor, the “receptor selectivity of agonist (κ)” value is “selective agonists for κ receptors” and the “Ke, norBNI” value is 5.31 nM. Moreover, the ED50 in experiment [2] (setting [4]) came out at 5.5 µg/kg. Further, in experiment [3], the ED (200% urine output) stood at 0.54 µg/kg, the ED (500% urine output) is 4.4 µg/kg and the “Diuretic action (in words)” value was “extremely strong diuretic action”.
`CN(C(=O)CSc1ccccc1)[C@H]1CC[C@@]2(O)[C@H]3Cc4ccc(O)c5c4[C@@]2(CCN3CC2CC2)[C@H]1O5` [Compound 45, 17-cyclopropylmethyl-4,5α-epoxy-3,14β-dihydroxy-6α-(N-methylthiophenoxyacetamido)morphinan.cndot.tartrate] showed an IC50 in experiment [1] of 185 pM. Further, the “Ke, Naloxone” value on μ receptor is recorded as 26.5 nM. In addition, the “Ke, NTI” value at δ receptor came out at 135 nM. Besides, at κ receptor, the “receptor selectivity of agonist (κ)” value is “selective agonists for κ receptors” and the “Ke, norBNI” value amounted to 0.416 nM. The ED50 in experiment [2] is 3.8 µg/kg. In experiment [3], this compound displayed an ED (200% urine output) of 8.1 µg/kg and an ED (500% urine output) of 857 µg/kg.
`CCCCOC(=O)N(C)[C@H]1CC[C@@]2(O)[C@H]3Cc4ccc(O)c5c4[C@@]2(CCN3CC2CC2)[C@H]1O5` [Compound 47, 17-cyclopropylmethyl-4,5α-epoxy-3,14β-dihydroxy-6α-(N-methylbutyroxycarbamido)morphinan.cndot.tartrate]: the IC50 in experiment [1] was 439 pM. Besides, at μ receptor, the “Ke, Naloxone” value is 63.5 nM. Besides, the “Ke, NTI” value at δ receptor is given as 10.4 nM. Moreover, at κ receptor, the “receptor selectivity of agonist (κ)” value is listed as “selective agonists for κ receptors” and the “Ke, norBNI” value is 0.140 nM. The median effective dose (ED50) in experiment [2] (setting [4]) came out at 0.52 µg/kg. Also, in experiment [2], the analgesic activity entry is “particularly strong analgesic activity”. The compound further registered an ED (200% urine output) in experiment [3] of 1.6 µg/kg.
The compound `CCCCOC(=O)N(C)[C@@H]1CC[C@@]2(O)[C@H]3Cc4ccc(O)c5c4[C@@]2(CCN3CC2CC2)[C@H]1O5` [Compound 59, 17-cyclopropylmethyl-3,14β-dihydroxy-4,5α-epoxy-6β-(N-methylbutyroxycarbamido)morphinan.cndot.tartrate] had an IC50 in experiment [1] of 1140 pM. Also, on μ receptor, the “Ke, Naloxone” value was found to be 21.3 nM. The “Ke, NTI” value at δ receptor is on record as 47.3 nM. Moreover, at κ receptor, the “receptor selectivity of agonist (κ)” value was “selective agonists for κ receptors” and the “Ke, norBNI” value is given as 0.151 nM. In experiment [2] (setting [4]), the ED50 worked out at 2.8 µg/kg. In experiment [3], the ED (200% urine output) is 10.5 µg/kg and the ED (500% urine output) is 2360 µg/kg.

For the origin of these results see patent US6177438A, “Morphinan derivatives and pharmaceutical use thereof” (priority 1993, dated 2001).
